Measured values from paper PMC11289455 (Scientific Reports, 2024).
Where two headings read alike, the source gives them in different places.

Key:
[1] = target: T1, V1a (vasopressin receptor 1A) (Homo sapiens, UniProt P37288); experiment: SafetyScreen44: V1a; assay type: binding
T1 construct: purchased Eurofins Cerep SafetyScreen44

[2] = target: T2, GR (glucocorticoid receptor) (Homo sapiens, UniProt P04150); experiment: SafetyScreen44: GR; assay type: binding
T2 construct: purchased Eurofins Cerep SafetyScreen44
T2 sequence (P04150 1-777): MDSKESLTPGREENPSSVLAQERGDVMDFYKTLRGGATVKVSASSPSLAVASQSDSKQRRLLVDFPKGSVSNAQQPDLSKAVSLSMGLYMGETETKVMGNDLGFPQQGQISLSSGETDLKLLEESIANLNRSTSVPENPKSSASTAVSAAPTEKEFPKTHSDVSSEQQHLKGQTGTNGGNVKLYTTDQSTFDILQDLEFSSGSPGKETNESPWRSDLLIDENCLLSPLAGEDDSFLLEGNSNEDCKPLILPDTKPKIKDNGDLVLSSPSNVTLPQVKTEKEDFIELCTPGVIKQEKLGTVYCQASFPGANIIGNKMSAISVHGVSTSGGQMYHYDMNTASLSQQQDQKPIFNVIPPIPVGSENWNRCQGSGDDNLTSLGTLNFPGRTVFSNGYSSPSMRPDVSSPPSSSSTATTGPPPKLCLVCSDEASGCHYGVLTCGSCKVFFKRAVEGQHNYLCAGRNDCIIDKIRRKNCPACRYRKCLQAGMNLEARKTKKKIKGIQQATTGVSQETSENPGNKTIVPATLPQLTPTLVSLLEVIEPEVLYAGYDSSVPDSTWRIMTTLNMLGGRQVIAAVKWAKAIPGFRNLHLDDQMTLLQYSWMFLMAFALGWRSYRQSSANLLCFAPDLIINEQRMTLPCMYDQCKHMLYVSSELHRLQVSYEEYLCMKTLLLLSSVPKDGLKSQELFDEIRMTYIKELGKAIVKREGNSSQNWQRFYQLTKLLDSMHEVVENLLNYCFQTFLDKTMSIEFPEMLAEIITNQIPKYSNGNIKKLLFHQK

[3] = target: T3, 5-HT2B (serotonin 2B receptor) (Homo sapiens, UniProt P41595); experiment: SafetyScreen44: 5-HT2B; assay type: binding
T3 construct: purchased Eurofins Cerep SafetyScreen44

[4] = Exposure in colon tissue and colon contents in TNBS studies; assay type: in vivo, rat; settings: TNBS rats, LC-MS/MS, LLOQ=2.6 nM
Description: Rats were deprived of food for 24 h prior to induction of colitis by intrarectal installation of TNBS 48 mg/kg (Sigma Aldrich; Raleigh, NC) in 50% ethanol on Day 0. All dose groups (n = approximately 10/group; up to 3 separate experiments) received TNBS, except negative controls, which received only water (n = 4). Rats were weighed daily. Euthanasia by overexposure to isoflurane occurred on Day 7. Following euthanasia, blood was collected retro-orbitally into serum separator microtainer tubes (Becton Dickinson; Franklin Lakes, NJ), centrifuged (2–3 min at 4 °C, 14,000 RPM), and stored at − 80 °C. Additionally, the whole colon was excised, measured, and photographed, and then cut open to allow for collection of the contents, which were weighed and flash frozen. After removal of the contents, colons were weighed and flash frozen. […] Colon weight/length ratio was calculated.
Table S3. […] All samples were analyzed using an LC-MS/MS method (LLOQ=2.6 nM).

[5] = test system: healthy participants; experiment: First-in-human study, safety and tolerability; assay type: in vivo
Description: The purpose of the first-in-human, single-center, randomized, double-blind, placebo-controlled study was to determine the safety, tolerability, pharmacokinetics, and pharmacodynamics of JNJ-77242113 in healthy participants. […] AEs were coded using the Medical Dictionary for Regulatory Activities (Version 23.1).

[6] = target: T4, CB1 (cannabinoid receptor type 1) (Homo sapiens, UniProt P21554); experiment: SafetyScreen44: CB1; assay type: binding
T4 construct: purchased Eurofins Cerep SafetyScreen44

[7] = target: T5, α2A (alpha-2A adrenergic receptor) (Homo sapiens, UniProt P08913); experiment: SafetyScreen44: α2A; assay type: binding
T5 construct: purchased Eurofins Cerep SafetyScreen44
T5 sequence (P08913 1-465): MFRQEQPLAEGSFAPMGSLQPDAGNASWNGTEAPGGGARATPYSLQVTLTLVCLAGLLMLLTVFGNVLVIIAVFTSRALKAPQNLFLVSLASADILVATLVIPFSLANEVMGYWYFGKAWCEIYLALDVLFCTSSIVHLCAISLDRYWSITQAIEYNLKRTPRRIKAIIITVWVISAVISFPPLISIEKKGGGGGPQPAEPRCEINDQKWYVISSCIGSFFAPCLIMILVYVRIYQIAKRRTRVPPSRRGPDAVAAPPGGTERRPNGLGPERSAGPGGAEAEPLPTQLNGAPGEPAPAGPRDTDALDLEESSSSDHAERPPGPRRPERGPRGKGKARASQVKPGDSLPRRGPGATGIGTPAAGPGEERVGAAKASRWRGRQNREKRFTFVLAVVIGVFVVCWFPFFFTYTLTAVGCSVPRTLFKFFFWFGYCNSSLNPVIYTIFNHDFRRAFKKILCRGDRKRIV

T3 sequence (P41595 whole entry): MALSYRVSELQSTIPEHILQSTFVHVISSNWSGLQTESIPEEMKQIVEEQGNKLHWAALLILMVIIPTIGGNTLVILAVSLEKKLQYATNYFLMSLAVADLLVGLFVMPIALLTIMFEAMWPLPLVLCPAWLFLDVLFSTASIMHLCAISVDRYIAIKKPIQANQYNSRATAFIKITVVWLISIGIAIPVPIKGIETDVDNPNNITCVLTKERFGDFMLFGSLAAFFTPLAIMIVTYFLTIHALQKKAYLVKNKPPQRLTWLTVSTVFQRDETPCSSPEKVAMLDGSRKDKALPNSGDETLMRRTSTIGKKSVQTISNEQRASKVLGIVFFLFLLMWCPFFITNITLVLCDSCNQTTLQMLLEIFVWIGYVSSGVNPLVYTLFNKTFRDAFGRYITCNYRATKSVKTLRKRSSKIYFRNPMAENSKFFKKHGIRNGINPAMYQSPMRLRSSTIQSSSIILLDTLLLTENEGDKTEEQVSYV
T1 sequence (P37288 whole entry): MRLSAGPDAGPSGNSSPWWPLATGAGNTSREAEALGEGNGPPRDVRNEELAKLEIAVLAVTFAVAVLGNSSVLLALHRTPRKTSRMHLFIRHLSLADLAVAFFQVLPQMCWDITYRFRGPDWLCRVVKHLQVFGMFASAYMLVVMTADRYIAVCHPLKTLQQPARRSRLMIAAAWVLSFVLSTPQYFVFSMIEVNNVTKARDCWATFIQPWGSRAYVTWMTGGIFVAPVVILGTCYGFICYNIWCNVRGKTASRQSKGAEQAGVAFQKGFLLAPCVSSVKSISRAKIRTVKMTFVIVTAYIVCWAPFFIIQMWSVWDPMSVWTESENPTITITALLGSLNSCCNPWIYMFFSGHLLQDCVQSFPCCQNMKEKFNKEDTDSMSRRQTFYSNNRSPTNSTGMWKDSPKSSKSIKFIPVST
T4 sequence (P21554 whole entry): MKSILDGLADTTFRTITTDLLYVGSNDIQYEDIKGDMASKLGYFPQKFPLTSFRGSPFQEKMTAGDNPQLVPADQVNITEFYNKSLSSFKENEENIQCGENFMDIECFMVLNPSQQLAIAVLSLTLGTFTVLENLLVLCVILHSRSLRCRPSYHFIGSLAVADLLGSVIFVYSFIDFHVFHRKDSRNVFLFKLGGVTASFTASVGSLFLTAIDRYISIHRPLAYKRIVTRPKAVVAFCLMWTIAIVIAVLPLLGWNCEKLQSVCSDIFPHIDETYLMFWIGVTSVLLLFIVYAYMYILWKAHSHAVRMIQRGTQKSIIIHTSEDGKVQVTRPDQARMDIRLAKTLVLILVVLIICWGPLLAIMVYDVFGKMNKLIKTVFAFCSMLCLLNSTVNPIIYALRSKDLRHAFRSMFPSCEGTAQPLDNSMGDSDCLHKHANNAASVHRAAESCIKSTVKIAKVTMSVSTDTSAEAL

SMILES: CC(=O)NCCCC[C@@H]1NC(=O)[C@H](Cc2c[nH]c3c(C)cccc23)NC(=O)[C@H]([C@@H](C)O)NC(=O)[C@H](CC(N)=O)NC(=O)[C@@H](NC(C)=O)C(C)(C)SSC(C)(C)[C@@H](C(=O)N[C@@H](Cc2ccc(OCCN)cc2)C(=O)N[C@@H](Cc2ccc3ccccc3c2)C(=O)NC2(C(=O)N[C@@H](CCC(=O)O)C(=O)N[C@@H](CC(N)=O)C(=O)N[C@@H](Cc3cccnc3)C(=O)N(C)CC(N)=O)CCOCC2)NC1=O [JNJ-77242113, S^3,1,S^3,6-cyclo[N-acetyl-3-sulfanyl-L-valyl-L-asparaginyl-L-threonyl-7-methyl-L-tryptophyl-N^6-acetyl-L-lysyl-3-sulfanyl-L-valyl-O-(2-aminoethyl)-L-tyrosyl-3-(naphthalen-2-yl)-L-alanyl-4-aminooxan-4-carbonyl-L-α-glutamyl-L-asparaginyl-3-(pyridin-3-yl)-L-alanyl-N^2-methylglycinamide]]
- inhibition at 10 µM ([1]; 1st run, read-out: Percent inhibition of control ligand binding, V1a, 1st run): 4.8%
- inhibition at 10 µM ([1]; 2nd run, read-out: Percent inhibition of control ligand binding, V1a, 2nd run): 6.4%
- inhibition at 10 µM ([1]; mean of 2 runs, read-out: Percent inhibition of control ligand binding, V1a, Mean): 5.6%
- inhibition at 10 µM ([2]; 1st run, read-out: Percent inhibition of control ligand binding, GR, 1st run): 3.5%
- inhibition at 10 µM ([2]; 2nd run, read-out: Percent inhibition of control ligand binding, GR, 2nd run): -0.8%
- inhibition at 10 µM ([2]; mean of 2 runs, read-out: Percent inhibition of control ligand binding, GR, Mean): 1.3%
- inhibition at 10 µM ([3]; 1st run, read-out: Percent inhibition of control ligand binding, 5-HT2B, 1st run): -19.6%
- inhibition at 10 µM ([3]; 2nd run, read-out: Percent inhibition of control ligand binding, 5-HT2B, 2nd run): -6.7%
- inhibition at 10 µM ([3]; mean of 2 runs, read-out: Percent inhibition of control ligand binding, 5-HT2B, Mean): -13.1%
- Colon tissue concentration ([4]; 0.03 mg/kg/day oral, Study 2): BQL
- level at time molar ([4]; 0.1 mg/kg/day oral, Study 1, read-out: Colon content concentration): 410 nM
- level at time molar ([4]; 0.1 mg/kg/day oral, Study 1, read-out: Colon tissue concentration): 12.8 nM
- level at time molar ([4]; 0.1 mg/kg/day oral, Study 2, read-out: Colon content concentration): 310 nM
- level at time molar ([4]; 0.1 mg/kg/day oral, Study 2, read-out: Colon tissue concentration): 16.8 nM
- Colon tissue concentration ([4]; 0.1 mg/kg/day oral, Study 3): BQL
- level at time molar ([4]; 0.1 mg/kg/day oral, Study 3, read-out: Colon content concentration): 299 nM
- level at time molar ([4]; 0.3 mg/kg/day oral, Study 1, read-out: Colon tissue concentration): 25.4 nM
- level at time molar ([4]; 1 mg/kg/day oral, Study 1, read-out: Colon content concentration): 3340 nM
- level at time molar ([4]; 1 mg/kg/day oral, Study 2, read-out: Colon content concentration): 3920 nM
- level at time molar ([4]; 1 mg/kg/day oral, Study 3, read-out: Colon content concentration): 3190 nM
- level at time molar ([4]; 3 mg/kg/day oral, Study 1, read-out: Colon content concentration): 9210 nM
- level at time molar ([4]; 3 mg/kg/day oral, Study 1, read-out: Colon tissue concentration): 333 nM
- level at time molar ([4]; 3 mg/kg/day oral, Study 2, read-out: Colon content concentration): 11700 nM
- level at time molar ([4]; 3 mg/kg/day oral, Study 2, read-out: Colon tissue concentration): 468 nM
- level at time molar ([4]; 3 mg/kg/day oral, Study 3, read-out: Colon content concentration): 11000 nM
- level at time molar ([4]; 3 mg/kg/day oral, Study 3, read-out: Colon tissue concentration): 268 nM
- level at time molar ([4]; male, Sprague-Dawley, rat, colon content, po, 0.03 mg/kg/day, 0.03 mg/kg/day oral, Study 2, read-out: Colon content concentration): 90.1 nM
- level at time molar ([4]; male, Sprague-Dawley, rat, colon content, po, 0.3 mg/kg/day, 0.3 mg/kg/day oral, Study 1, read-out: Colon content concentration): 973 nM
- level at time molar ([4]; male, Sprague-Dawley, rat, colon content, po, 0.3 mg/kg/day, 0.3 mg/kg/day oral, Study 2, read-out: Colon content concentration): 1050 nM
- level at time molar ([4]; male, Sprague-Dawley, rat, colon content, po, 0.3 mg/kg/day, 0.3 mg/kg/day oral, Study 3, read-out: Colon content concentration): 1680 nM
- level at time molar ([4]; male, Sprague-Dawley, rat, colon content, po, 10 mg/kg/day, 10 mg/kg/day oral, Study 2, read-out: Colon content concentration): 38700 nM
- level at time molar ([4]; male, Sprague-Dawley, rat, colon tissue, po, 0.3 mg/kg/day, 0.3 mg/kg/day oral, Study 2, read-out: Colon tissue concentration): 47.5 nM
- level at time molar ([4]; male, Sprague-Dawley, rat, colon tissue, po, 0.3 mg/kg/day, 0.3 mg/kg/day oral, Study 3, read-out: Colon tissue concentration): 23.4 nM
- level at time molar ([4]; male, Sprague-Dawley, rat, colon tissue, po, 1 mg/kg/day, 1 mg/kg/day oral, Study 1, read-out: Colon tissue concentration): 84.3 nM
- level at time molar ([4]; male, Sprague-Dawley, rat, colon tissue, po, 1 mg/kg/day, 1 mg/kg/day oral, Study 2, read-out: Colon tissue concentration): 168 nM
- level at time molar ([4]; male, Sprague-Dawley, rat, colon tissue, po, 1 mg/kg/day, 1 mg/kg/day oral, Study 3, read-out: Colon tissue concentration): 83.2 nM
- level at time molar ([4]; male, Sprague-Dawley, rat, colon tissue, po, 10 mg/kg/day, 10 mg/kg/day oral, Study 2, read-out: Colon tissue concentration): 1410 nM
- Serious AEs or deaths related to JNJ-77242113 ([5]; all cohorts): No serious AEs or deaths
- Severity of adverse events ([5]; all cohorts): mild or moderate
- Headache, participants, Part 2 ([5]; healthy participants, multiple ascending dose): 13.6%
- Frequency of treatment-related AEs, Part 2 ([5]; healthy participants, multiple ascending dose, JNJ-77242113 groups): 46%
- Headache, participants, Part 1 ([5]; healthy participants, single ascending dose): 10.3%
- Frequency of treatment-related AEs, Part 1 ([5]; healthy participants, single ascending dose, JNJ-77242113 groups): 31%
- inhibition at 10 µM ([6]; 1st run, read-out: Percent inhibition of control ligand binding, CB1, 1st run): 2.5%
- inhibition at 10 µM ([6]; 2nd run, read-out: Percent inhibition of control ligand binding, CB1, 2nd run): -6.9%
- inhibition at 10 µM ([6]; mean of 2 runs, read-out: Percent inhibition of control ligand binding, CB1, Mean): -2.2%
- inhibition at 10 µM ([7]; 1st run, read-out: Percent inhibition of control ligand binding, α2A, 1st run): 0.4%
- inhibition at 10 µM ([7]; 2nd run, read-out: Percent inhibition of control ligand binding, α2A, 2nd run): -2.6%
- inhibition at 10 µM ([7]; mean of 2 runs, read-out: Percent inhibition of control ligand binding, α2A, Mean): -1.1%
